Measurements reported in article PMC5916032 (Journal of molecular biology, 2018).

Biological target: fascin 1 (Homo sapiens, UniProt Q16658)
Experiment: X-ray co-crystal structure
Type: biochemical

IC50: ~180 nM
Compound: Cc1cnoc1C(=O)Nc1nn(Cc2ccc(C(F)(F)F)cc2)c2ccccc12 [NP-G2-029, 4-methyl-N-(1-(4-(trifluoromethyl)benzyl)-1H-indazol-3-yl)isoxazole-5-carboxamide]
